# According to patent US12257237B2 (priority 2017, dated 2025):
# Several values for one entry are separate records, joined by “and”; a condition that tells them apart may be missing. Equal values may be shown once.
# Experiment: Drug tolerability (body weight) in DD013 dedifferentiated liposarcoma xenograft model
# Assay type: in vivo, Athymic nude mice
# Design: key to Animal status: †: sacrificed moribund
# Conditions: for Mouse body weight: individual mice
# Method: Experiments were performed with female Athymic nude mice, 9-10 weeks old obtained from Harlan Laboratories (Udine, Italy). They were maintained under Specific Pathogen Free conditions with constant temperature and humidity, according to the institutional guidelines.
# Tumour growth mice was monitored two/three times a week (depending on tumour growth rate, to avoid unnecessary stress to the animals) by Vernier caliper. Mice were sacrificed when tumour reached a mean weight of 2±0.5 gr. The antitumour activity will be expressed as T/C %, where T and C were the mean tumour weight of treated and control groups, respectively. Mice were monitored daily and weighted at least two times a week. Tolerability was evaluated on the basis of body weight loss (BWL) and clinical observation.
# [1] = EDO40 (40 mg/kg), day 23 from inoculum
# [2] = EDO40 (40 mg/kg), day 26 from inoculum
# [3] = EDO40 (40 mg/kg), day 33 from inoculum
# [4] = EDO40 (40 mg/kg), day 36 from inoculum
# [5] = EDO40 (40 mg/kg), day 40 from inoculum
# [6] = EDO40 (40 mg/kg), day 43 from inoculum
# [7] = EDO40 (40 mg/kg), day 50 from inoculum
# [8] = EDO40 (40 mg/kg), day 54 from inoculum
# [9] = EDO40 (40 mg/kg), day 58 from inoculum
# [10] = EDO40 (40 mg/kg), day 62 from inoculum
# [11] = EDO40 (40 mg/kg), day 65 from inoculum
# [12] = EDO40 (40 mg/kg), day 69 from inoculum
# [13] = EDO40 (40 mg/kg), day 72 from inoculum
# [14] = EDO40 (40 mg/kg), day 75 from inoculum
# [15] = EDO40 (40 mg/kg), day 79 from inoculum
# [16] = EDO40 (40 mg/kg), day 83 from inoculum
# [17] = EDO40 (40 mg/kg), day 87 from inoculum
# [18] = EDO40 (40 mg/kg), day 90 from inoculum
# [19] = EDO40 (40 mg/kg), day 94 from inoculum
# [20] = EDO40 (40 mg/kg), day 98 from inoculum
# [21] = EDO40 (40 mg/kg), day 100 from inoculum
# [22] = EDO60 (60 mg/kg), day 23 from inoculum
# [23] = EDO60 (60 mg/kg), day 26 from inoculum
# [24] = EDO60 (60 mg/kg), day 29 from inoculum
# [25] = EDO60 (60 mg/kg), day 33 from inoculum
# [26] = EDO60 (60 mg/kg), day 36 from inoculum
# [27] = EDO60 (60 mg/kg), day 40 from inoculum
# [28] = EDO80 (80 mg/kg), day 23 from inoculum
# [29] = EDO80 (80 mg/kg), day 26 from inoculum
# [30] = EDO80 (80 mg/kg), day 29 from inoculum
# [31] = EDO80 (80 mg/kg), day 33 from inoculum
# [32] = EDO80 (80 mg/kg), day 36 from inoculum
# [33] = EDO80 (80 mg/kg), day 40 from inoculum
# [34] = EDO80 (80 mg/kg), day 43 from inoculum
# [35] = EDO80 (80 mg/kg), day 47 from inoculum
# [36] = EDO80 (80 mg/kg), day 50 from inoculum
# [37] = EDO80 (80 mg/kg), day 54 from inoculum
# [38] = EDO80 (80 mg/kg), day 58 from inoculum
# [39] = EDO80 (80 mg/kg), day 62 from inoculum
# [40] = EDO80 (80 mg/kg), day 65 from inoculum
# [41] = EDO80 (80 mg/kg), day 69 from inoculum
# [42] = EDO80 (80 mg/kg), day 72 from inoculum
# [43] = EDO80 (80 mg/kg), day 75 from inoculum
# [44] = EDO80 (80 mg/kg), day 79 from inoculum
# [45] = EDO80 (80 mg/kg), day 83 from inoculum
# [46] = EDO80 (80 mg/kg), day 87 from inoculum
# [47] = EDO80 (80 mg/kg), day 90 from inoculum
# [48] = EDO80 (80 mg/kg), day 94 from inoculum
# [49] = EDO80 (80 mg/kg), day 98 from inoculum
# [50] = EDO80 (80 mg/kg), day 100 from inoculum
# [51] = EDO80 (80 mg/kg), day 103 from inoculum
compound,measurement,setting,value
"Cn1c(CCCCCCC(=O)NO)nc2cc(N(CCCl)CCCl)ccc21 [EDO-S101, 7-(5-(bis(2-chloroethyl)amino)-1-methyl-1H-benzo[d]imidazol-2-yl)-N-hydroxyheptanamide]",rapid BWL of one mouse (sacrificed),"80 mg/kg group, between day 75 and 79 from inoculum",> 30%
same,BWL %,[1],0.0%
same,"Mouse body weight, Mean",[1],23.6 g
same,BWL %,[2],−1.7%
same,"Mouse body weight, Mean",[2],23.2 g
same,"Mouse body weight, Mean","EDO40 (40 mg/kg), day 29 from inoculum",24.7 g
same,BWL %,[3],2.4%
same,"Mouse body weight, Mean",[3],24.2 g
same,BWL %,[4],4.1%
same,"Mouse body weight, Mean",[4],24.6 g
same,BWL %,[5],6.1%
same,"Mouse body weight, Mean",[5],25.0 g
same,BWL %,[6],6.2%
same,"Mouse body weight, Mean",[6],25.1 g
same,"Mouse body weight, Mean","EDO40 (40 mg/kg), day 47 from inoculum",26.0 g
same,BWL %,[7],11.7%
same,"Mouse body weight, Mean",[7],26.4 g
same,BWL %,[8],10.1%
same,"Mouse body weight, Mean",[8],26.0 g
same,BWL %,[9],8.3%
same,"Mouse body weight, Mean",[9],25.6 g
same,BWL %,[10],11.0%
same,"Mouse body weight, Mean",[10],26.2 g
same,BWL %,[11],9.1%
same,"Mouse body weight, Mean",[11],25.8 g
same,BWL %,[12],13.3%
same,"Mouse body weight, Mean",[12],26.8 g
same,BWL %,[13],13.3%
same,"Mouse body weight, Mean",[13],26.8 g
same,BWL %,[14],15.6%
same,"Mouse body weight, Mean",[14],27.3 g
same,BWL %,[15],13.8%
same,"Mouse body weight, Mean",[15],26.9 g
same,BWL %,[16],14.3%
same,"Mouse body weight, Mean",[16],27.0 g
same,BWL %,[17],14.4%
same,"Mouse body weight, Mean",[17],27.0 g
same,BWL %,[18],17.9%
same,"Mouse body weight, Mean",[18],27.8 g
same,BWL %,[19],16.0%
same,"Mouse body weight, Mean",[19],27.4 g
same,BWL %,[20],18.3%
same,"Mouse body weight, Mean",[20],27.9 g
same,BWL %,[21],15.7%
same,"Mouse body weight, Mean",[21],27.3 g
same,BWL %,[22],0.0%
same,"Mouse body weight, Mean",[22],23.3 g
same,BWL %,[23],−4.5%
same,"Mouse body weight, Mean",[23],22.3 g
same,BWL %,[24],1.7%
same,"Mouse body weight, Mean",[24],23.7 g
same,BWL %,[25],−0.8%
same,"Mouse body weight, Mean",[25],23.1 g
same,BWL %,[26],2.5%
same,"Mouse body weight, Mean",[26],23.9 g
same,BWL %,[27],−0.6%
same,"Mouse body weight, Mean",[27],23.2 g
same,"Mouse body weight, Mean","EDO60 (60 mg/kg), day 43 from inoculum",24.1 g
same,"Mouse body weight, Mean","EDO60 (60 mg/kg), day 47 from inoculum",25.2 g
same,"Mouse body weight, Mean","EDO60 (60 mg/kg), day 50 from inoculum",25.3 g
same,"Mouse body weight, Mean","EDO60 (60 mg/kg), day 54 from inoculum",25.6 g
same,"Mouse body weight, Mean","EDO60 (60 mg/kg), day 58 from inoculum",25.5 g
same,"Mouse body weight, Mean","EDO60 (60 mg/kg), day 62 from inoculum",25.5 g
same,"Mouse body weight, Mean","EDO60 (60 mg/kg), day 69 from inoculum",25.9 g
same,"Mouse body weight, Mean","EDO60 (60 mg/kg), day 72 from inoculum",26.3 g
same,"Mouse body weight, Mean","EDO60 (60 mg/kg), day 75 from inoculum",26.0 g
same,"Mouse body weight, Mean","EDO60 (60 mg/kg), day 79 from inoculum",24.8 g
same,"Mouse body weight, Mean","EDO60 (60 mg/kg), day 83 from inoculum",24.5 g
same,"Mouse body weight, Mean","EDO60 (60 mg/kg), day 87 from inoculum",24.6 g
same,"Mouse body weight, Mean","EDO60 (60 mg/kg), day 90 from inoculum",24.8 g
same,"Mouse body weight, Mean","EDO60 (60 mg/kg), day 94 from inoculum",25.3 g
same,"Mouse body weight, Mean","EDO60 (60 mg/kg), day 98 from inoculum",26.2 g
same,"Mouse body weight, Mean","EDO60 (60 mg/kg), day 111 from inoculum",25.6 g
same,"Mouse body weight, Mean","EDO60 (60 mg/kg), day 114 from inoculum",25.3 g
same,"Mouse body weight, Mean","EDO60 (60 mg/kg), day 118 from inoculum",25.5 g
same,BWL %,[28],0.0%
same,"Mouse body weight, Mean",[28],24.2 g
same,Mouse body weight,[28],26.1 g and 25.7 g and 25 g and 23.1 g and 24 g and 26.2 g and 22.4 g and 22.3 g
same,BWL %,[29],−3.4%
same,"Mouse body weight, Mean",[29],21.9 g
same,Mouse body weight,[29],23.4 g and 23.6 g and 22 g and 21.3 g and 20.9 g and 20.1 g and 22.4 g and 21.6 g and 21.9 g
same,BWL %,[30],4.2%
same,"Mouse body weight, Mean",[30],21.7 g
same,Mouse body weight,[30],22.7 g and 22.6 g and 21.5 g and 22.2 g and 21 g (3×) and 21.6 g (2×)
same,BWL %,[31],1.3%
same,"Mouse body weight, Mean",[31],23.7 g
same,Mouse body weight,[31],25.1 g (2×) and 24 g and 23.1 g and 21.9 g and 22.5 g
same,BWL %,[32],5.9%
same,"Mouse body weight, Mean",[32],25.5 g
same,Mouse body weight,[32],27 g and 25.3 g and 24.7 g and 23.8 g and 26.3 g and 24.2 g and 24.6 g
same,BWL %,[33],2.5%
same,Mouse body weight,[33],28.6 g and 27 g and 25.7 g and 24.4 g (2×) and 27.9 g and 24 g
same,BWL %,[34],8.0%
same,"Mouse body weight, Mean",[34],25.8 g
same,Mouse body weight,[34],28.5 g and 26.5 g and 25 g (2×) and 26.9 g and 24.2 g and 24.4 g
same,BWL %,[35],5.9%
same,"Mouse body weight, Mean",[35],25.9 g
same,Mouse body weight,[35],27.9 g and 26.1 g and 24.6 g (2×) and 24.2 g and 27.4 g and 24.4 g
same,BWL %,[36],7.6%
same,"Mouse body weight, Mean",[36],25.8 g
same,Mouse body weight,[36],27.9 g and 26.8 g and 24.6 g and 24.4 g and 26.3 g and 23.2 g and 25.3 g
same,BWL %,[37],8.0%
same,"Mouse body weight, Mean",[37],26.2 g
same,Mouse body weight,[37],27.7 g and 26.7 g and 25.8 g and 25 g (2×) and 28 g and 24.8 g
same,BWL %,[38],12.2%
same,"Mouse body weight, Mean",[38],27.0 g
same,Mouse body weight,[38],28.7 g and 29.8 g and 28 g and 27.4 g and 26.9 g and 25 g (2×)
same,BWL %,[39],8.4%
same,"Mouse body weight, Mean",[39],23.5 g
same,Mouse body weight,[39],25.7 g and 24.4 g and 23.9 g and 24 g and 22.7 g and 21.9 g and 23.7 g and 23.8 g and 21.4 g
same,BWL %,[40],8.0%
same,"Mouse body weight, Mean",[40],23.9 g
same,BWL %,[41],6.3%
same,"Mouse body weight, Mean",[41],25.2 g
same,Mouse body weight,[41],28.7 g
same,BWL %,[42],9.7%
same,"Mouse body weight, Mean",[42],25.9 g
same,Mouse body weight,[42],30.7 g
same,BWL %,[43],13.9%
same,"Mouse body weight, Mean",[43],26.4 g
same,Mouse body weight,[43],30.6 g
same,BWL %,[44],8.8%
same,"Mouse body weight, Mean",[44],24.6 g
same,Mouse body weight,[44],28.7 g
same,BWL %,[45],7.6%
same,"Mouse body weight, Mean",[45],24.1 g
same,Mouse body weight,[45],24.1 g
same,Animal status,"EDO80 (80 mg/kg), day 83 from inoculum, mouse # 56",†
same,BWL %,[46],5.0%
same,"Mouse body weight, Mean",[46],23.8 g
same,Mouse body weight,[46],25.3 g
same,BWL %,[47],2.9%
same,"Mouse body weight, Mean",[47],25.4 g
same,Mouse body weight,[47],29.2 g
same,BWL %,[48],0.0%
same,"Mouse body weight, Mean",[48],27.4 g
same,BWL %,[49],2.9%
same,"Mouse body weight, Mean",[49],28.0 g
same,Mouse body weight,[49],31.1 g
same,BWL %,[50],0.4%
same,"Mouse body weight, Mean",[50],27.5 g
same,Mouse body weight,[50],29.7 g
same,BWL %,[51],−0.8%
same,"Mouse body weight, Mean",[51],27.3 g
same,Mouse body weight,[51],25.9 g
same,BWL,all doses and schedules,< 5%
